Where a name gives a salt, the structure may show the parent alone. A value given as a limit tells only on which side of the number the result lay.

For 42 compounds, IC50 results are on record in patent publication US12577217B2, “15-PGDH inhibitor” (KYORIN Pharmaceutical Co., Ltd., priority 2019, dated 2026).

The target in the experiment is T1, recombinant human 15-PGDH (Homo sapiens, UniProt P15428).
T1 construct: purchased R&D Systems
T1 sequence (P15428 1-266): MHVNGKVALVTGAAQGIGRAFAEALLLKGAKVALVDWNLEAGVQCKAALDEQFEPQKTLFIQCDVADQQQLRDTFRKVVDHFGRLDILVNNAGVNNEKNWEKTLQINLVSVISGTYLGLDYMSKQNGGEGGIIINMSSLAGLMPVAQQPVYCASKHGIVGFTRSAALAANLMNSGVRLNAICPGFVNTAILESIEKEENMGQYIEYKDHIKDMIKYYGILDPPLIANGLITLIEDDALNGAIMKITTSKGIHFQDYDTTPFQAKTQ
In words: 15-PGDH enzyme inhibition test. Type of experiment: biochemical. The conditions noted are these: 4 nM recombinant human 15-PGDH, 30 μM PGE2, 1 mM NAD+, 60 minutes after starting the reaction; read-out: IC50 Value. A digest of the protocol: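 4 nM recombinant human enzyme pre-incubated with compound 12 min at room temperature in 50 mM Tris-HCl pH 8.0 with 0.01% Tween 20 and 0.01% bovine gamma globulin. Reaction started with 30 μM PGE2 and 1 mM NAD+, read after 60 min by fluorescence (ex 340/em 440 nm). IC50 from concentration-response curve.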

On to `CN(CC1CCCC1)C(=O)c1cnc2c(c1)OCCN2c1ccn2c(=O)n(C)nc2c1` [Example 17-3], for which the IC50 is < 10 nM.

Take `CO[C@@H]1CCCN(C(=O)c2cnc3c(c2)OCCN3c2ccn3c(=O)n(C)nc3c2)C1` [Example 18-1, (R)-7-(7-(3-Methoxypiperidine-1-carbonyl)-2,3-dihydro-4H-pyrido[3,2-b] [1,4]oxazin-4-yl)-2-methyl-[1,2,4]triazolo[4,3-a]pyridin-3(2H)-one]: the IC50 was < 10 nM.

On to `CO[C@H]1CCCN(C(=O)c2cnc3c(c2)OCCN3c2ccn3c(=O)n(C)nc3c2)C1` [Example 18-2], for which the 50% inhibitory concentration (IC50) was < 10 nM.

Regarding `Cn1nc2cc(N3CCOc4cc(C(O)C5CCCCC5)cnc43)ccn2c1=O` (stereo not drawn) [Example 19-1, 7-(7-(Cyclohexyl(hydroxy)methyl)-2,3-dihydro-4H-pyrido[3,2-b] [1,4]oxazin-4-yl)-2-methyl-[1,2,4]triazolo[4,3-a]pyridin-3 (2H)-one], the IC50 was < 10 nM.

As to `Cn1nc2cc(N3CCOc4cc(C(O)C5CCC(F)(F)CC5)cnc43)ccn2c1=O` (stereo not drawn) [Example 19-2], the concentration for half-maximal inhibition (IC50) fell in the range of 10 to 100 nM.

For the compound `O=C(O)c1ccc(N2CCOc3cc(C(=O)N4CCCCC4)cnc32)cc1F` [Example 20-1, 2-Fluoro-4-(7-(piperidine-1-carbonyl)-2,3-dihydro-4H-pyrido[3,2-b][1,4]oxazin-4-yl)benzoic Acid], the 50% inhibitory concentration (IC50) was < 10 nM.

On to `O=C(c1cnc2c(c1)OCCN2c1ccn2c(=O)n(-c3ccccc3)nc2c1)N1CCCCC1` [Example 21-1, 2-Phenyl-7-(7-(piperidine-1-carbonyl)-2,3-dihydro-4H-pyrido[3,2-b] [1,4]oxazin-4-yl)-[1,2,4]triazolo[4,3-a]pyridin-3 (2H)-one], for which the concentration for half-maximal inhibition (IC50) is < 10 nM.

With `Cn1nc2cc(N3CC(F)(F)COc4cc(C(=O)N5CCCCC5)cnc43)ccn2c1=O` [Example 22-1, 7-(3,3-Difluoro-8-(piperidine-1-carbonyl)-3,4-dihydropyrido[3,2-b][1,4]oxazepin-5(2H)-yl)-2-methyl-[1,2,4]triazolo[4,3-a]pyridin-3 (2H)-one], the 50% inhibitory concentration (IC50) is 10 to 100 nM.

Turning to `Cc1cc(N2CCOc3cc(C(=O)N4CCCCC4)ccc32)n2ncnc2n1` [Example 24-1, (4-(5-Methyl-[1,2,4]triazolo[1,5-a]pyrimidin-7-yl)-3,4-dihydro-2H-benzo[b][1,4]oxazin-7-yl)(piperidin-1-yl)methanone], the IC50 is > 100 nM.

Take `Cc1nccc(N2CCOc3cc(C(=O)N4CCC(F)(F)CC4)ccc32)n1` [Example 24-3]: the half-inhibitory concentration (IC50) lay in the range of 10 to 100 nM.

Regarding `O=C(c1cnc2c(c1)OCCN2c1ccc2c(c1)CN(CO)C2=O)N1CCC(F)(F)CC1` [Example 25-1, 5-(7-(4,4-Difluoropiperidine-1-carbonyl)-2,3-dihydro-4H-pyrido[3,2-b]oxazin-4-yl)-2-(hydroxymethyl)isoindolin-1-one], the IC50 was < 10 nM.

In the case of `O=C(c1cnc2c(c1)CCCN2c1ccn2c(=O)n(C3CC3)nc2c1)N1CCCCC1` [Example 26-1, 2-Cyclopropyl-7-(6-(piperidine-1-carbonyl)-3,4-dihydro-1,8-naphthylidin-1(2H)-yl)-[1,2,4]triazolo[4,3-a]pyridin-3(2H)-one], the IC50 is < 10 nM.

`O=C(c1cnc2c(c1)OCCN2c1ccn2c(=O)n(C3CC3)nc2c1)N1CCCCC1` [Example 26-2]: the IC50 was < 10 nM.

`O=C(c1cnc2c(c1)OCCN2c1ccn2c(=O)n(Cc3ccc(F)cc3)nc2c1)N1CCCCC1` [Example 27-1]: the IC50 was < 10 nM.

In the case of `O=C(c1cnc2c(c1)OCCN2c1ccn2c(=O)n(Cc3ccnc(Cl)c3)nc2c1)N1CCCCC1` [Example 27-2], the 50% inhibitory concentration (IC50) is < 10 nM.

As to `O=C(c1cnc2c(c1)OCCN2c1ccn2c(=O)n(CC(F)(F)F)nc2c1)N1CCCCC1` [Example 27-3], the IC50 is < 10 nM.

`O=C(c1cnc2c(c1)OCCN2c1ccn2c(=O)n(Cc3ccc(F)cc3)nc2c1)N1CCC(F)(F)CC1` [Example 27-4]: the half-maximal inhibitory concentration (IC50) was < 10 nM.

For the compound `O=C(c1cnc2c(c1)OCCN2c1ccn2c(=O)n(Cc3ccc(F)cc3F)nc2c1)N1CCC(F)(F)CC1` [Example 27-5], the half-inhibitory concentration (IC50) was < 10 nM.

Consider `O=C(c1cnc2c(c1)OCCN2c1ccn2c(=O)n(Cc3ccc(F)c(F)c3)nc2c1)N1CCC(F)(F)CC1` [Example 27-6], for which the half-maximal inhibitory concentration (IC50) was < 10 nM.

As for `O=C(c1cnc2c(c1)OCCN2c1ccn2c(=O)n(Cc3ccnc(Cl)c3)nc2c1)N1CCC(F)(F)CC1` [Example 27-7], the IC50 is < 10 nM.

On to `O=C(c1cnc2c(c1)OCCN2c1ccn2c(=O)n(CC(F)(F)F)nc2c1)N1CCC(F)(F)CC1` [Example 27-8], for which the IC50 is < 10 nM.

On to `Cn1nc2cc(N3CCNc4cc(C(=O)N5CCC(F)(F)CC5)cnc43)ccn2c1=O` [Example 28-2], for which the IC50 was < 10 nM.

For the compound `CN1CCN(c2ccn3c(=O)n(C)nc3c2)c2ncc(C(=O)N3CCCCC3)cc21` [Example 29-1, 2-Methyl-7-(l-methyl-7-(piperidine-1-carbonyl)-2,3-dihydropyrido[2,3-b]pyrazin-4(1H)-yl)-[1,2,4]triazolo[4,3-a]pyridin-3(2H)-one], the concentration for half-maximal inhibition (IC50) was < 10 nM.

Turning to `COCCN1CCN(c2ccn3c(=O)n(C)nc3c2)c2ncc(C(=O)N3CCCCC3)cc21` [Example 29-2], the half-inhibitory concentration (IC50) was < 10 nM.

Consider `CC(=O)N1CCN(c2ccn3c(=O)n(C)nc3c2)c2ncc(C(=O)N3CCCCC3)cc21` [Example 29-3], for which the IC50 was < 10 nM.

As to `CN1CCN(c2ccn3c(=O)n(C)nc3c2)c2ncc(C(=O)N3CCC(F)(F)CC3)cc21` [Example 29-4], the half-inhibitory concentration (IC50) was < 10 nM.

Consider `CCN1CCN(c2ccn3c(=O)n(C)nc3c2)c2ncc(C(=O)N3CCC(F)(F)CC3)cc21` [Example 29-5], for which the IC50 is < 10 nM.

On to `Cn1nc2cc(N3CCN(c4ccccc4)c4cc(C(=O)N5CCC(F)(F)CC5)cnc43)ccn2c1=O` [Example 30-1, 7-(7-(4,4-Difluoropiperidine-1-carbonyl)-1-phenyl-2,3-dihydropyrido[2,3-b]pyrazin-4(1H)-yl)-2-methyl-[1,2,4]triazolo[4,3-a]pyridin-3 (2H)-one], for which the 50% inhibitory concentration (IC50) fell in the range of 10 to 100 nM.

For `Cn1nc2cc(N3CCN(c4ccc(C#N)cc4)c4cc(C(=O)N5CCC(F)(F)CC5)cnc43)ccn2c1=O` [Example 30-2], the IC50 fell in the range of 10 to 100 nM.

Take `COC(=O)c1ccc(N2CCN(c3ccn4c(=O)n(C)nc4c3)c3ncc(C(=O)N4CCC(F)(F)CC4)cc32)cc1` [Example 30-3]: the 50% inhibitory concentration (IC50) lay within 10 to 100 nM.

For `Cn1nc2cc(N3CCN(c4ncc(Cl)s4)c4cc(C(=O)N5CCC(F)(F)CC5)cnc43)ccn2c1=O` [Example 30-4], the IC50 is < 10 nM.

For `Cn1nc2cc(N3CCN(c4cccnc4)c4cc(C(=O)N5CCC(F)(F)CC5)cnc43)ccn2c1=O` [Example 30-5], the concentration for half-maximal inhibition (IC50) was > 100 nM.

On to `CC(=O)NC(C)(C)c1ccc(N2CCOc3cc(C(=O)N4CCCCC4)cnc32)cc1` [Example 31-1], for which the IC50 is > 100 nM.

Turning to `CC(C)(NS(C)(=O)=O)c1ccc(N2CCOc3cc(C(=O)N4CCCCC4)cnc32)cc1` [Example 31-2], the half-maximal inhibitory concentration (IC50) was > 100 nM.

Take `CNC1CCCN(C(=O)c2cnc3c(c2)OCCN3c2ccn3c(=O)n(C)nc3c2)C1` (stereo not drawn) [Example 32-1, 2-Methyl-7-(7-(3-(methylamino)piperidine-1-carbonyl)-2,3-dihydro-4H-pyrido[3,2-b][1,4]oxazin-4-yl)-[1,2,4]triazolo[4,3-a]pyridin-3(2H)-one Trifluoroacetate]: the IC50 was > 100 nM.

Consider `CN(C)C1CCCN(C(=O)c2cnc3c(c2)OCCN3c2ccn3c(=O)n(C)nc3c2)C1` (stereo not drawn) [Example 33-1, 7-(7-(3-(Dimethylamino)piperidine-1-carbonyl)-2,3-dihydro-4H-pyrido[3,2-b] [1,4]oxazin-4-yl)-2-methyl-[1,2,4]triazolo[4,3-a]pyridin-3(2H)-one], for which the IC50 was > 100 nM.

Turning to `CC(=O)N(C)C1CCCN(C(=O)c2cnc3c(c2)OCCN3c2ccn3c(=O)n(C)nc3c2)C1` (stereo not drawn) [Example 34-1, N-Methyl-N-(1-(4-(2-methyl-3-oxo-2,3-dihydro-[1,2,4]triazolo[4,3-a]pyridin-7-yl)-3,4-dihydro-2H-pyrido[3,2-b][1,4]oxazin-7-carbonyl)piperidin-3-yl)acetamide], the half-inhibitory concentration (IC50) was > 100 nM.

Consider `Cn1nc2cc(N3CCOc4cc(C(=O)N5CCC[C@H]5C(=O)O)cnc43)ccn2c1=O` [Example 35-1, (4-(2-Methyl-3-oxo-2,3-dihydro-[1,2,4]triazolo[4,3-a]pyridin-7-yl)-3,4-dihydro-2H-pyrido[3,2-b][1,4]oxazine-7-carbonyl)-L-proline], for which the IC50 is > 100 nM.

Turning to `Cn1nc2cc(N3CCOc4cc(C(=O)N5CCC[C@@H]5C(=O)O)cnc43)ccn2c1=O` [Example 35-2], the IC50 is > 100 nM.

Take `Cn1nc2cc(N3CCOc4cc(C(=O)N5CCC[C@H]5C(N)=O)cnc43)ccn2c1=O` [Example 36-1, (S)-1-(4-(2-Methyl-3-oxo-2,3-dihydro-[1,2,4]triazolo[4,3-a]pyridin-7-yl)-3,4-dihydro-2H-pyrido[3,2-b][1,4]oxazine-7-carbonyl)pyrrolidine-2-carboxamide]: the IC50 is > 100 nM.

Consider `Cn1nc2cc(N3CCOc4cc(C(=O)N5CCC[C@@H]5C(N)=O)cnc43)ccn2c1=O` [Example 36-2], for which the IC50 is > 100 nM.

For the compound `Cn1nc2cc(N3CCOc4cc(C(=O)N5C=CCCC5)cnc43)ccn2c1=O` [Example 37-1, 2-Methyl-7-(7-(1,2,3,4-tetrahydropyridine-1-carbonyl)-2,3-dihydro-4H-pyrido[3,2-b][1,4]oxazin-4-yl)-[1,2,4]triazolo[4,3-a]pyridin-3(2H)-one], the half-maximal inhibitory concentration (IC50) was < 10 nM.

What is called IC50 is the concentration needed to halve the response being measured.
